In patent US20230365577A1, “Photodynamic Therapy and Diagnosis” (RMW CHO Group Limited, priority 2020, published 2023):
Counter-ions that a name gives are not always drawn. Like-named read-outs stand apart in the source and are kept apart here.

Assays:
[1] = Singlet oxygen (1O2) production rate; type: physicochemical
Text: The production of singlet oxygen (^1O2), cellular phototoxicity and light-independent cytotoxicity (“dark toxicity”) of a number of phyllochlorin analogues were compared against chlorin e4 disodium and Talaporfin sodium (mono-L-aspartyl chlorin e6), the active ingredient of Laserphyrin™.

SKOV3 cells = test: Cellular uptake and retention (intrinsic fluorescence); type: cell-based, Human; settings: for Uptake and clearance, comparison of the two salt forms: SKOV3, 24 hours uptake then 24 hours clearance
Procedure: Based on the increased phototoxicity of compound 1c versus compound 1, it was assessed whether this salt substitution alters cellular uptake or retention over time. SKOV3 cells were incubated for up 24 hours in the presence of either compound 1 or 1c (as previously described). At defined time intervals (FIG. 5) the media was aspirated, replaced with sterile PBS, and cells imaged for fluorescence (Ex 405 nm/Em 660 nm) using a Cytation 3 Multimode Plate Reader (Biotek). After 24 hours the media was aspirated, replaced with fresh media and the loss of cellular fluorescence similarly monitored. All images (minimum 100 cells per time point) were then quantitatively analysed (Gen5.0 software) and an average fluorescence/cell/time point determined. Average fluorescence measurements were normalised against the maximum average value measured for each photosensitizer, and plotted as percent total fluorescence (mean±SD) overtime.
The uptake and retention of compounds 1 and 2 was compared in SKOV3 cancer cells over a 48 hour period. SKOV3 cells were incubated for up 24 hours in the presence of either compound 1 or 2 (as previously described). At defined time intervals (FIG. 6) the media was aspirated, replaced with sterile PBS, and cells imaged for fluorescence (Ex 405 nm/Em 660 nm) using a Cytation 3 Multimode Plate Reader (Biotek). After 24 hours the media was aspirated, replaced with fresh media and the loss of cellular fluorescence similarly monitored. All images (minimum 100 cells per time point) were then quantitatively analysed (Gen5.0 software) and an average fluorescence/cell/time point determined. Average fluorescence measurements were normalised against the maximum average value measured for each photosensitizer, and plotted as percent total fluorescence (mean±SD) over time.
Phyllochlorin was functionalised with saccharidyl groups (glucose or mannose) using various configurations, and the effects on rate of uptake by cells assessed over a 4 hour incubation period as above. The rate of uptake of saccharidyl-conjugated phyllochlorin analogues exceeded that of unconjugated compound 2 (examples shown in FIG. 7); after 2 hours, saccharidyl-conjugated phyllochlorin analogues (compounds 6, 8 and 17) had reached 57-68% of their maximal uptake compared to 37% for compound 2 (FIG. 7A). By 4 hours total uptake was similar, and there was no apparent difference in cellular distribution between glucose (compounds 6 and 8) and mannose (compound 17) linked species (FIG. 7B).

[2] = tested on: SKOV3 ovarian cancer cells; test: Phototoxicity in SKOV3 cells (652 nm laser, AlamarBlue viability); type: cell-based, Human; settings: for IC90: SKOV3, 24 h uptake, 652 nm laser 50 mW/cm2 5 mins (15 J/cm2), viability 24 h later, read-out: Cellular Toxicity: Phototoxicity IC90; for IC50: SKOV3, 652 nm laser, estimated from fitted curves
Procedure: (§1) Human ovarian cancer cell line SKOV3 (ATCC #HTB-77) was maintained in Dulbecco's Modified Eagle Medium/Nutrient Mixture F-12 (DMEM/F-12), supplemented with 10% v/v Fetal Bovine Serum, 100 U/mL penicillin and 100 µg/mL streptomycin. Monolayer cultures were grown in a humidified incubator at 37° C. with 5% CO2.
(§2) For in vitro experiments, photosensitizers (stock solution 5.5 mM in 100% DMSO) were diluted in cell culture media (Dulbecco's Modified Eagle Medium/Nutrient Mixture F-12) supplemented with 10% v/v Fetal Bovine Serum, 100 U/mL penicillin, 100 µg/mL streptomycin and 10% w/v Kollidon-12. Once cells had reached ˜80% confluence, spent media was replaced with media containing photosensitizer and cells were incubated for the desired period of time to allow photosensitizer uptake.
SKOV3 cells were seeded in 96-well black wall plates (Greiner #655090) at a cell density of 5000 cells in 100 μl culture medium per well. On reaching ˜60% confluence, so media was aspirated and replaced with fresh media containing the relevant phyllochlorin analogue from 0-100 μM in DMSO. Cells were incubated for a further 24 hours, allowing uptake of phyllochlorin analogues.
To test for phototoxicity, cells incubated with phyllochlorin analogues (0-10 μM in DMSO) had culture media replaced after 24 hours (as above) and were then exposed to a 652 nm laser (Invion) with laser density at 50 mW/cm^2 for 5 mins (total 15 J/cm^2). Following activation, cells were cultured for a further 24 hours. Media was then replaced with fresh media containing AlamarBlue, and % viable cells remaining assessed as above. Controls included cells treated with phyllochlorin analogues but not activated by laser light; cells without phyllochlorin analogue treatment but with laser light; and untreated controls. All measurements were made in quadruplicate.
(§3) For comparative purposes, phyllochlorin analogues were tested and compared against both chlorin e4 disodium and Talaporfin sodium, a clinically approved photosensitizer used in the photodynamic treatment of lung cancers. Phototoxicity IC90 values and dark toxicity IC10 values were calculated using a log[inhibitor]-vs normalized response dose curve with variable slope, using the formula Y=100/(1+(IC90/X)^HillSlope (phototoxicity IC90) or Y=100/(1+(IC10/X)^HillSlope (dark toxicity IC10).

[3] = tested on: SKOV3 ovarian cancer cells; test: Inherent cytotoxicity (dark toxicity) in SKOV3 cells (AlamarBlue viability); type: cell-based, Human
Procedure: as §1, §2
SKOV3 cells were seeded in 96-well black wall plates (Greiner #655090) at a cell density of 5000 cells in 100 μl culture medium per well. On reaching ˜60% confluence, media was aspirated and replaced with fresh media containing the relevant phyllochlorin analogue from 0-100 μM in DMSO. Cells were incubated for a further 24 hours, allowing uptake of phyllochlorin analogues.
To test for inherent cytotoxicity (i.e. “dark toxicity”) of the phyllochlorin analogue the culture media was replaced after 24 hours with fresh media containing 10% (v/v) AlamarBlue Cell Viability Reagent (ThermoFisher) and cells incubated at 37° C. for 6 hours. Untreated cells were used as a control. Fluorescence (Ex 555 nm/Em 596 nm) was measured using a Cytation 3 Multimode Plate Reader (Biotek), and cytotoxicity assessed according to the % viable cells remaining. All measurements were made in quadruplicate.
as §3

[4] = Acute toxicity after intraperitoneal injection; type: in vivo, C57BL/6 mice; settings: 5 mg/kg intraperitoneal, 1% PVP in PBS + 20 mM HEPES, observed 30 mins
Procedure: To assess acute toxicity, phyllochlorin or chlorin e4 disodium (each prepared with 1% PVP in PBS+20 mM HEPES) were administered at a dose of 5 mg/kg to C57BL/6 mice by intraperitoneal injection.

[5] = tested on: 4T1 murine breast cancer cells; test: Tumour localisation and retention, model 1 (subcutaneous 4T1 tumours); type: in vivo, Balb/C wild type mice; settings: 0.1 mg/kg IT, primary breast tumours, IVIS fluorescence
Procedure: Model 1 used Balb/C wild type mice implanted subcutaneously with 10^4×4T1 murine breast cancer cells. When tumours reached a palpable size (˜3-6 mm diameter) mice received compound 6 by either oral gavage (ORAL: 2.5 mg/kg), intravenous injection (IV: 1.0 mg/kg), or intratumoral injection (IT: 1.0 mg/kg in […]). To establish compound 6 localisation, mice were imaged using an IVIS Lumina III In Vivo Imaging System (Perkin Elmer) to detect fluorescence at 660 nm when illuminated under blue (400-460 nm) light.
In a second experiment, the localisation of compound 6 at 24 hours post-administration was compared to that of Talaporfin sodium and 5-Aminolevulinic acid (5-ALA), with all compounds injected at 0.1 mg/kg IT. Fluorescence measurements were made using an IVIS Lumina III instrument (as above).

C=Cc1c(C)c2cc3nc(c(C)c4cc(C)c(cc5nc(cc1[nH]2)C(C)=C5CC)[nH]4)[C@@H](CCC(=O)O)[C@@H]3C [Compound 1c, phyllochlorin choline salt]
Singlet Oxygen Production (slope) 1O2 [1]: 1229.0 | Uptake and clearance, comparison of the two salt forms (SKOV3 cells): no significant difference | IC90 [2]: 0.21 µM | Cellular Toxicity: Dark toxicity IC10 ([3]; human, 24 h): 58.01 µM

C=Cc1c(C)c2cc3nc(c(C)c4cc(C)c(cc5nc(cc1[nH]2)C(C)=C5CC)[nH]4)[C@@H](CCC(=O)OC)[C@@H]3C [Compound 2, phyllochlorin methyl ester]
Singlet Oxygen Production (slope) 1O2 [1]: 2141.0 | Percent of maximal uptake (SKOV3 cells; SKOV3, after 2 hours incubation): 37% | Compound remaining within cells (SKOV3 cells; SKOV3, after 24 hours clearance): > 50% | IC90 ([2]; Homo sapiens, SK-OV-3, light or radiation study): 0.26 µM | Cellular Toxicity: Dark toxicity IC10 ([3]; human, 24 h): 39.62 µM

C=Cc1c(C)c2cc3nc(c(C)c4cc(C)c(cc5nc(cc1[nH]2)C(C)=C5CC)[nH]4)[C@@H](CCC(=O)O)[C@@H]3C [Compound 1, phyllochlorin sodium salt]
Singlet Oxygen Production (slope) 1O2 ([1]; sodium salt): 1445.0 | Uptake and clearance, comparison of the two salt forms (SKOV3 cells): no significant difference | Fluorescence lost from cells (SKOV3 cells; SKOV3, within 4 hours after replacing media): 80% | IC90 ([2]; sodium salt): 0.35 µM | Cellular Toxicity: Dark toxicity IC10 ([3]; human, 24 h): 21.96 µM

C=Cc1c(C)c2cc3nc(c(C)c4[nH]c(cc5nc(cc1[nH]2)C(C)=C5CC)c(C)c4C(=O)O)[C@@H](CCC(=O)O)[C@@H]3C [Chlorin e4 disodium, chlorin e4 disodium, reference compound]
Side effects (clinical signs of acute toxicity) [4]: No side effects were noted | Singlet Oxygen Production (slope) 1O2 [1]: 998.2 | IC50 ([2]; absence of PVP): 4.53 µM | IC50 ([2]; with addition of PVP): 1.35 µM | IC90 [2]: 21.3 µM | Concentration at which cells remained >80% viable (dark toxicity) ([3]; SKOV3, 24 hours, absence of PVP): up to 80 μM | Concentration at which cells retained >80% viability (dark toxicity) ([3]; SKOV3, 24 hours, with addition of PVP): 100 µM | Cellular Toxicity: Dark toxicity IC10 ([3]; SKOV3, 24 h incubation, no light): 40.23 µM

3-((7S,8S)-18-ethyl-2,5,8,12,17-pentamethyl-13-vinyl-7H,8H-porphyrin-7-yl)-N-methyl-N-(3-(((2S,3R,4S,5S,6R)-3,4,5-trihydroxy-6-(hydroxymethyl)tetrahydro-2H-pyran-2-yl)thio)propyl)propanamide zinc complex [Compound 19]
Singlet Oxygen Production (slope) 1O2 [1]: 404.7 | IC90 [2]: 12.8 µM | Cellular Toxicity: Dark toxicity IC10 [3]: 20.20 µM

NCC(=O)CCC(=O)O [Compound 5-ALA, 5-Aminolevulinic acid, reference compound]
Tumour localisation at 24 hours post-administration [5]: could not be accurately detected
